These results are taken from patent US9981950B2, “Triazoles as NR2B receptor inhibitors” (Janssen Pharmaceuticals, Inc., priority 2014, dated 2018).

Structures are written as SMILES.

Broadly, the IC50 is the midpoint of a concentration-inhibition curve.

Experiment [1] deals with hERG-receptor (Homo sapiens (Human), UniProt Q12809). Description: HERGBD: inhibition of specific 3H-Dofetilide binding to the hERG-receptor. To be noted: HEK cell membranes with human ERG, Hill-plot 2-parameter-model. Here is the method: Inhibition of Specific Binding to the hERG-Receptor (HERGBD)
hERG-receptor, sequence (Q12809 whole entry): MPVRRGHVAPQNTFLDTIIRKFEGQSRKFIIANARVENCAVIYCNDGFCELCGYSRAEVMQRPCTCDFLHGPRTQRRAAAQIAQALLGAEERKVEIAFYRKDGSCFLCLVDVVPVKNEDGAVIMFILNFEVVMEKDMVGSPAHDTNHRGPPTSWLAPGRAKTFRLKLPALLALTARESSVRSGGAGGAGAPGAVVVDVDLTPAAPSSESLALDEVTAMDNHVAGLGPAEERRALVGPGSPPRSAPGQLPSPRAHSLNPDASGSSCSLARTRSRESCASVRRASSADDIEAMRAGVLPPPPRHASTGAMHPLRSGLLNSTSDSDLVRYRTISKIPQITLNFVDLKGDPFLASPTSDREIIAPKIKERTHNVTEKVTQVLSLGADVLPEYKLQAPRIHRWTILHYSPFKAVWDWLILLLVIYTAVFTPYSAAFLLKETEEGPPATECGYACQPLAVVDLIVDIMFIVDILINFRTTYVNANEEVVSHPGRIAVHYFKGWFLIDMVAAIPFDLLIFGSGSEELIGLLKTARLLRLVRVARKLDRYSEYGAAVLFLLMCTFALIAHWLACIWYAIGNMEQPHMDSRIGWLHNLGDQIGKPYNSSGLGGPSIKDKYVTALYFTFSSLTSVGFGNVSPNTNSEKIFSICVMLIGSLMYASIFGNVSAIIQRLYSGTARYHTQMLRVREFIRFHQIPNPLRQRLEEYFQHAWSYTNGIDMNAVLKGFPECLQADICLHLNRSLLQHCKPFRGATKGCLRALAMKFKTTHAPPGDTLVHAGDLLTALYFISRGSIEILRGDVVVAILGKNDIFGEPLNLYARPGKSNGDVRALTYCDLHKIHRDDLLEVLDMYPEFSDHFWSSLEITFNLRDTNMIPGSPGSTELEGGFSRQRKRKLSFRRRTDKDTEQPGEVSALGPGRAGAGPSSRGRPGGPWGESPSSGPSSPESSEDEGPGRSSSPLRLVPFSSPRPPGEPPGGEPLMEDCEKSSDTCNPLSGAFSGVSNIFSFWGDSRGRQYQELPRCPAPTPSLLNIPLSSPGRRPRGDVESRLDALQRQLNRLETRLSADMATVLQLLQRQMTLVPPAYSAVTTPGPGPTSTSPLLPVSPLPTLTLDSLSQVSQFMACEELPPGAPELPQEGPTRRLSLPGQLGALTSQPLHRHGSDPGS
A HEK cell line with stable transfected human ERG receptor was used for the assay. The cells were grown adherently and maintained in DULBECCOS' MEM medium with 10% FBS, 1% non-essential amino acids, 1% Penicillin/Streptomycin and 400 μg/ml G418 (Calbiochem).
For binding assays and membrane preparations the cell culture medium was removed, cells were washed with PBS. Crude membranes for radioligand binding experiments were prepared by scraping the cells off the dishes in ice cold 20 mM HEPES/0.1 mM KCl/pH 7.2. The cell suspension was homogenized on ice (Ultra turrax, 3×20 sec.) and the homogenate was spun for 10 min (1° C., 1000 g, OPTIMA, SW28, 2800 U/min). The supernatant was than centrifuged for 40 min at 100000 g (1° C., OPTIMA, SW28, 23000 U/min). The membrane pellet was resuspended in 20 mM HEPES/0.1 mM KCl/pH 7.2, frozen and stored at −80° C.
After thawing on the day of the assay, the membrane suspension was diluted further with 20 mM HEPES/0.1 mM KCl/pH 7.2.
The incubation mixture of 200 μl contained 1.5 nmol/l 3H-Dofetilide, optimized amount of membrane preparation, 20 mM HEPES/0.1 mM KCl/(pH 7.2) and inhibitor in 1% DMSO. Nonspecific binding was estimated in the presence of […] Dofetilide. The samples were incubated for 90 min. at RT.
Binding was terminated by filtration of the incubated membrane preparations using Filtermat B (Pharmacia, Uppsala Sweden) and a Micro Cell Harvester (Skatron, Lier, Norway). The Filtermat B had been presoaked with 1% polyethylenimine and carefully washed with 0.05 M Tris/HCl-buffer pH=7.7 after the filtration to separate free and bound radioactivity. The filters were counted in a scintillation counter (Betaplate 1205, Berthold, Wildbad, Germany) in order to determine the specific binding of [^3H]-Dofetilide.
The optimal amount of membrane preparation in the assay was determined and optimized for each membrane preparation separately in front of using the membranes in compound testing.
For pipetting of the incubation mixture we routinely use the robot Biomek2000 (Fa. Beckman).
A general note: Block of hERG is tested as a sign of cardiac risk.

For experiment [2], the target named is T1, rat NR1/NR2B receptor (Rattus norvegicus (Rat), UniProt P35439+Q00960). Description: RRNR2BB: inhibition of specific binding to the rat NR1/NR2B receptor. As to conditions: [3H]-Ifenprodil binding, rat brain membranes, Hill-plot 2-parameter-model. Here is the method:
RRNR2BB—Inhibition of Specific Binding to the Rat NR1/NR2B Receptor
(§1) Male Wistar rats (180 to 200 g) were killed by suffocation in a CO2 chamber for two minutes. Whole brains without cerebellum were removed and dissected on ice, placed into closed vials and stored at −70° C.
Membrane fractions were prepared and tested using standard techniques. At the time of the assay, 1 g of the brains were placed into 25 ml of 50 mM Tris/10 mM EDTA buffer, pH=7.1, (25 vol. per g of original tissue) and was homogenized for 30 sec at 20000 U/min with an Ultraturrax T25 (Jahnke & Kunkel, IKA-Labortechnik, Staufen, Germany). The homogenate was centrifuged at 4° C. for 10 min at 48000 g (OPTIMA L-70, Beckman, Palo Alto, Calif. 94304, USA). The supernatant was discarded and the pellet was homogenized on ice for 30 sec at 20000 U/min with an Ultraturrax and again centrifuged at 48000 g for 30 minutes at 4° C. The resultant pellet was resuspended in 25 ml of 50 mM Tris/10 mM EDTA buffer, homogenized for 30 sec with an Ultraturrax, aliquoted, frozen at −70° C. and stored until use
After thawing on the day of the assay, a 5 ml membrane aliquote was centrifuged at 48000 g for 30 min at 4° C. The pellet was resuspended in 5 ml of 5 mM Tris/1 mM EDTA buffer, pH=7.4, homogenized for 30 sec at 20000 U/min with an Ultraturrax and centrifuged at 48000 g for 30 min at 4° C. This step was repeated twice. The final pellet was homogenized in 5 ml of 5 mM Tris/mM EDTA buffer at 4° C. with an Ultraturrax and used for the Ifenprodil-binding assay.
Nonspecific binding was estimated in the presence of 10 M CP101.606. The samples were incubated for 60 min. at 4° C.
Binding was terminated by filtration of the incubated membrane preparations using Filtermat B (Pharmacia, Uppsala Sweden) and a Micro Cell Harvester (Skatron, Lier, Norway). The Filtermat B had been presoaked with 1% polyethylenimine and carefully washed with […] Tris/HCl-buffer pH=7.7 after the filtration to separate free and bound radioactivity.
For pipetting of the incubation mixture the robot Biomek2000 (Fa. Beckman) was used.
The IC50 values in the tables below were determined using the Hill-plot, 2-parameter-model.

The target of experiment [3] is T1, rat NR1/NR2B receptor. The experiment can be described thus: NR2B binding assay: inhibition of specific [3H]-Ifenprodil binding to the rat NR1/NR2B receptor. To be noted: rat brain membranes, Hill-plot 2-parameter-model. How it is done:
Inhibition of Specific Binding to the Rat NR1/NR2B Receptor
as §1
Membrane fractions were prepared and tested using standard techniques. At the time of the assay, 1 g of the brains was placed into 25 ml of 50 mM Tris/10 mM EDTA buffer, pH 7.1, (25 vol. per g of original tissue) and homogenized for 30 sec at 20000 rpm with an Ultraturrax T25 (Jahnke & Kunkel, IKA-Labortechnik, Staufen, Germany). The homogenate was centrifuged at 4° C. for 10 min at 48000 g (OPTIMA L-70, Beckman, Palo Alto, Calif. 94304, USA).
The supernatant was discarded and the pellet was homogenized on ice for 30 sec at 20000 rpm with an Ultraturrax and again centrifuged at 48000 g for 30 minutes at 4° C. The resulted pellet was resuspended in 25 ml of 50 mM Tris/10 mM EDTA buffer, homogenized for 30 sec with an Ultraturrax, aliquoted, frozen at −70° C. and stored until use.
After thawing on the day of the assay, a 5 ml membrane aliquot was centrifuged at 48000 g for 30 min at 4° C. The pellet was resuspended in 5 ml of 5 mM Tris/1 mM EDTA buffer, pH 7.4, homogenized for 30 sec at 20000 rpm with an Ultraturrax and centrifuged at 48000 g for 30 min at 4° C. This was repeated twice. The final pellet was homogenized in 5 ml of 5 mM Tris/l mM EDTA buffer at 4° C. with an Ultraturrax and used for the Ifenprodil-binding assay as described in the following.
Nonspecific binding was estimated in the presence of […] CP101.606. The samples were incubated for 60 min. at 4° C.
The incubation was terminated by filtration of the membrane preparations using Filtermat B (Pharmacia, Uppsala Sweden) and a Micro Cell Harvester (Skatron, Lier, Norway). The Filtermat B had been presoaked with 1% polyethylene imine and carefully washed with 50 mM Tris/HCl-buffer pH 7.7 after the filtration to separate free and bound radioactivity.
The optimal amount of membrane preparation in the assay had been determined and optimized for each membrane preparation separately before the test.
For pipetting of the incubation mixture we routinely used the robot Biomek2000 (Fa. Beckman).
For determination of IC50 values the Hill-plot, 2-parameter-model was used.

T1 sequence (Q00960 27-1482, other chains not shown): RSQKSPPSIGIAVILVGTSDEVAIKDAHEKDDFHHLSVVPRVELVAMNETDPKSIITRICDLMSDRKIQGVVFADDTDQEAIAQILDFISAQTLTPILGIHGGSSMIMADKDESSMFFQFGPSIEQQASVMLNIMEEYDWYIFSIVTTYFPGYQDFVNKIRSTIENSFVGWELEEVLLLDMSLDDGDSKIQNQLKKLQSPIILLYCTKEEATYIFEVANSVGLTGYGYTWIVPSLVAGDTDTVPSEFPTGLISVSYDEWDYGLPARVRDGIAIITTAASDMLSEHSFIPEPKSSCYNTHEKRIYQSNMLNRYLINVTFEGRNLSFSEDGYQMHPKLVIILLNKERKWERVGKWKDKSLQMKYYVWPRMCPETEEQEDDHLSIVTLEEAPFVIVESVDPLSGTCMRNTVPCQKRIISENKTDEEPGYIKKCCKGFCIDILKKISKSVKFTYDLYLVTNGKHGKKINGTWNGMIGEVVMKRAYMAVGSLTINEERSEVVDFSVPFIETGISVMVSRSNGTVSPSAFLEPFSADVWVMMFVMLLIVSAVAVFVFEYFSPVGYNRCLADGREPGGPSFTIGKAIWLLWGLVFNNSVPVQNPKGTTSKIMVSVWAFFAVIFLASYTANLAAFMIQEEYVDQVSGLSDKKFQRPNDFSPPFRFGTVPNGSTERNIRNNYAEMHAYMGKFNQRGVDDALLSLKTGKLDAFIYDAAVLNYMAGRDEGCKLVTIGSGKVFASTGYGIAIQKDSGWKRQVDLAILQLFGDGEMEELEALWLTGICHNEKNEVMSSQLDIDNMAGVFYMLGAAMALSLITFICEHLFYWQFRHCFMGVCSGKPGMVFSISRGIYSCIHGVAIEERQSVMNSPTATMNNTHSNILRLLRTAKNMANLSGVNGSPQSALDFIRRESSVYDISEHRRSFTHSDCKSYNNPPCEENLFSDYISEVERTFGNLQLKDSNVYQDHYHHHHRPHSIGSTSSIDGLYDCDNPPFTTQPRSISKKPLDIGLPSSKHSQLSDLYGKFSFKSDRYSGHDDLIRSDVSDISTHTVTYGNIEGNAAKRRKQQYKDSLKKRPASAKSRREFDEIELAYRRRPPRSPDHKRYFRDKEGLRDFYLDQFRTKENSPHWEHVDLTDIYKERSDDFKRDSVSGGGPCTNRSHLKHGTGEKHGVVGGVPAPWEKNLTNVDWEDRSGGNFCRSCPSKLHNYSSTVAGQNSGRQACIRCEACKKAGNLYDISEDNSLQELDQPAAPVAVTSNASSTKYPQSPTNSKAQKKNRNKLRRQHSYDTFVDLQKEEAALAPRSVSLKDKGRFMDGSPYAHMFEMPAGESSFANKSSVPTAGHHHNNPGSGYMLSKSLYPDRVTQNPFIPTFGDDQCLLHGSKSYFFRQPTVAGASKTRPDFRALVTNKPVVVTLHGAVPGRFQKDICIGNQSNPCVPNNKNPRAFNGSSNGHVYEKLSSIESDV

As to `Cc1ncnn1Cc1cn(-c2ccc(Cl)cc2)nn1` [Example 8, 1-(4-Chloro-phenyl)-4-(5-methyl-[1,2,4]triazol-1-ylmethyl)-1H-[1,2,3]triazole], the IC50 in experiment [1] is 48900 nM; in experiment [2], 14300 nM; in experiment [3], 14300 nM.

Turning to `Clc1ccc(-n2cc(Cn3ncnc3C3CCCC3)nn2)cc1` [Example 14, 1-(4-Chloro-phenyl)-4-(5-cyclopentyl-[1,2,4]triazol-1-ylmethyl)-1H-[1,2,3]triazole], the IC50 in experiment [1] came out at 30500 nM; in experiment [2], 12500 nM; in experiment [3], 12500 nM.

On to `CCCc1nccn1Cc1cn(-c2ccc(Cl)cc2)nn1` [Example 18, 1-(4-Chloro-phenyl)-4-(2-propyl-imidazol-1-ylmethyl)-1H-[1,2,3]triazole], for which the 50% inhibitory concentration (IC50) was 2230 nM in experiment [1], 46.6 nM in experiment [2] and 46.6 nM in experiment [3].

Turning to `CC(C)(C)c1ncnn1Cc1cn(-c2ccc(Cl)cc2)nn1` [Example 19, 4-(5-tert-Butyl-[1,2,4]triazol-1-ylmethyl)-1-(4-chloro-phenyl)-1H-[1,2,3]triazole], the IC50 in experiment [1] was 33800 nM; in experiment [2], above 10000 nM.

On to `CC(C)(C)c1ncn(Cc2cn(-c3ccc(Cl)cc3)nn2)n1` [Example 20, 4-(3-tert-Butyl-[1,2,4]triazol-1-ylmethyl)-1-(4-chloro-phenyl)-1H-[1,2,3]triazole], for which the IC50 in experiment [1] was 35600 nM; in experiment [2], above 10000 nM.

`Cc1nc(C2CCC2)n(Cc2cn(-c3ccc(Cl)cc3)nn2)n1` [Example 21, 1-(4-Chloro-phenyl)-4-(5-cyclobutyl-3-methyl-[1,2,4]triazol-1-ylmethyl)-1H-[1,2,3]triazole]: the IC50 in experiment [1] is 3520 nM; in experiment [2] it was above 10000 nM.

`Cc1nccn1Cc1cn(-c2ccc(Cl)cc2)nn1` [Example 24, 1-(4-Chloro-phenyl)-4-(2-methyl-imidazol-1-ylmethyl)-1H-[1,2,3]triazole]: the IC50 in experiment [1] turned out to be 5640 nM; in experiment [2] it was 38.4 nM; in experiment [3], 38.4 nM.

Turning to `CCCCc1nccn1Cc1cn(-c2ccc(Cl)cc2)nn1` [Example 27, 4-(2-Butyl-imidazol-1-ylmethyl)-1-(4-chloro-phenyl)-1H-[1,2,3]triazole], the IC50 in experiment [1] came out at 570 nM; in experiment [2], 38.9 nM; in experiment [3], 38.9 nM.

With `OCc1nccn1Cc1cn(-c2ccc(Cl)cc2)nn1` [Example 28, 4-(2-Hydroxymethyl-imidazol-1-ylmethyl)-1-(4-chloro-phenyl)-1H-[1,2,3]triazole], the values for the 50% inhibitory concentration (IC50) in experiment [1], in experiment [2] and in experiment [3] were 11200 nM, 573 nM and 573 nM, respectively.

For `Cc1nncn1Cc1cn(-c2ccc(Cl)cc2)nn1` [Example 31, 1-(4-Chloro-phenyl)-4-(3-methyl-[1,2,4]triazol-4-ylmethyl)-1H-[1,2,3]triazole], the IC50 in experiment [1] was 22400 nM; in experiment [2], above 10000 nM.

For the molecule `Cc1nccn1Cc1cn(-c2ccc(Cl)c(Cl)c2)nn1` [Example 32, 1-(3,4-Dichloro-phenyl)-4-(2-methyl-imidazol-1-ylmethyl)-1H-[1,2,3]triazole], the 50% inhibitory concentration (IC50) in experiment [1] turned out to be 3930 nM; in experiment [2] it was 4.92 nM; in experiment [3], 4.92 nM.

Regarding `CCc1nccn1Cc1cn(-c2ccc(Cl)c(Cl)c2)nn1` [Example 33, 1-(3,4-Dichloro-phenyl)-4-(2-ethyl-imidazol-1-ylmethyl)-1H-[1,2,3]triazole], the IC50 in experiment [1] is 2230 nM; in experiment [2], 4.65 nM; in experiment [3], 4.65 nM.

As for `CCCc1nccn1Cc1cn(-c2ccc(Cl)c(Cl)c2)nn1` [Example 34, 1-(3,4-Dichloro-phenyl)-4-(2-propyl-imidazol-1-ylmethyl)-1H-[1,2,3]triazole], the concentration for half-maximal inhibition (IC50) stood at 1120 nM in experiment [1], 7.67 nM in experiment [2] and 7.67 nM in experiment [3].

For `CC(C)c1nccn1Cc1cn(-c2ccc(Cl)c(Cl)c2)nn1` [Example 35, 1-(3,4-Dichloro-phenyl)-4-(2-isopropyl-imidazol-1-ylmethyl)-1H-[1,2,3]triazole], the values for the half-maximal inhibitory concentration (IC50) in experiment [1], in experiment [2] and in experiment [3] were 5880 nM, 7.4 nM and 7.4 nM, respectively.

As to `Clc1ccc(-n2cc(Cn3ccnc3C3CC3)nn2)cc1Cl` [Example 36, 4-(2-Cyclopropyl-imidazol-1-ylmethyl)-1-(3,4-dichloro-phenyl)-1H-[1,2,3]triazole], the IC50 came to 1160 nM in experiment [1], 17.9 nM in experiment [2] and 17.9 nM in experiment [3].

Regarding `CCCCc1nccn1Cc1cn(-c2ccc(Cl)c(Cl)c2)nn1` [Example 37, 4-(2-Butyl-imidazol-1-ylmethyl)-1-(3,4-dichloro-phenyl)-1H-[1,2,3]triazole], the half-maximal inhibitory concentration (IC50) in experiment [1] amounted to 585 nM; in experiment [2], 6.84 nM; in experiment [3], 6.84 nM.

For `Cc1nc(C)n(Cc2cn(-c3ccccc3)nn2)n1` [Example 46, 4-(3,5-Dimethyl-[1,2,4]triazol-1-ylmethyl)-1-phenyl-1H-[1,2,3]triazole], the figures for the IC50 in experiment [1] and in experiment [2] were 7580 nM and above 10000 nM, respectively.

Consider `CC(F)(F)c1cc(-n2cc(Cn3ccnc3CCO)nn2)ccc1F` [Example 106, 1-[3-(1,1-Difluoro-ethyl)-4-fluoro-phenyl]-4-[2-(2-hydroxy-ethyl)-imidazol-1-ylmethyl]-1H-[1,2,3]triazole], for which the IC50 in experiment [2] and in experiment [3] was 8.08 nM each time.
